Measurements published in ChEMBL document CHEMBL1142213, “Mechanism of antimalarial action of the synthetic trioxolane RBX11160 (OZ277)” (Antimicrob Agents Chemother, 2007).
Activity calls are given as the source filed them. No cut-off for these calls is given here.

Tests used:
[1] = Inhibition of Plasmodium berghei SERCA
[2] = Inhibition of Plasmodium falciparum ATP6 expressed in Xenopus laevis oocytes; format: cell-based; conditions: oocyte
Oryctolagus cuniculus [3] = organism: Oryctolagus cuniculus; assay: Inhibition of rabbit muscle SERCA at 10 uM
Oocyte [4] = assay: Inhibition of Plasmodium falciparum HT expressed in Xenopus laevis oocytes assessed as D-[U-14C]glucose uptake at 50 uM; format: cell-based
Plasmodium falciparum = assay: Antimalarial activity against Plasmodium falciparum NF54 within 48 hrs; format: functional, organism-based; conditions: NF54, 48 h
Oryctolagus cuniculus [5] = organism: Oryctolagus cuniculus; assay: Inhibition of rabbit muscle SERCA at 100 uM
Oocyte [6] = assay: Abrogation of Plasmodium falciparum ATP6 inhibition expressed in Xenopus laevis oocytes at 10 uM in presence of 100 uM desferioxamine; format: cell-based
Oocyte [7] = assay: Inhibition of Plasmodium falciparum ATP6 expressed in Xenopus laevis oocytes at 50 uM; format: cell-based

Compound | Ki [1] [µM] | Ki [2] [µM] | inhibition (Oryctolagus cuniculus [3]) [%] | Activity (Oocyte [4]) | IC50 (Plasmodium falciparum) [µM] | inhibition (Oryctolagus cuniculus [5]) [%] | Activity (Oocyte [6]) | Activity (Oocyte [7])
C[C@@H]1CC[C@H]2[C@@H](C)C(=O)O[C@@H]3O[C@@]4(C)CC[C@@H]1[C@]32OO4 [ARTEMISININ] | 6 | 0.079 | – | – | – | – | – | –
C/C=C(/C)C(=O)O[C@H]1C(C)=C2[C@H]([C@@H]1OC(=O)CCCCCCC)[C@@](C)(OC(C)=O)C[C@H](OC(=O)CCC)[C@@]1(O)[C@H]2OC(=O)[C@@]1(C)O | – | – | 75 | – | – | – | – | –
CC(C)(N)CNC(=O)C[C@H]1CC[C@@]2(CC1)OOC1(O2)C2CC3CC(C2)CC1C3 (some centres undefined) | – | 7.7 | – | inactive | 0.0016 | 50 | inactive | Active
